Source: PubChem BioAssay (NCI)
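96-well plates; 48 h exposure; 5 concentrations. Endpoints by linear interpolation between flanking doses. Not reached: highest tested concentration assigned. TGI denotes the concentration required for complete inhibition of growth.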

Assays:
Test in all cases: growth of human tumour cells (NCI), 48 h
NCI-H460 lung = test system: NCI-H460 lung
ACHN renal = test system: ACHN renal
SNB-78 CNS = test system: SNB-78 CNS
CAKI-1 renal = test system: CAKI-1 renal
EKVX NSCLC = test system: EKVX NSCLC
SNB-75 CNS = test system: SNB-75 CNS
DMS 114 small cell lung = test system: DMS 114 small cell lung
LXFL 529 NSCLC = test system: LXFL 529 NSCLC
NCI-H226 lung = test system: NCI-H226 lung
HL-60(TB) leukemia = test system: HL-60(TB) leukemia
OVCAR-3 ovarian = test system: OVCAR-3 ovarian
MALME-3M melanoma = test system: MALME-3M melanoma
KM20L2 colon = test system: KM20L2 colon
K-562 leukemia = test system: K-562 leukemia
NCI-H23 lung = test system: NCI-H23 lung
UACC-62 melanoma = test system: UACC-62 melanoma
SR leukemia = test system: SR leukemia
COLO 205 colon = test system: COLO 205 colon
LOX IMVI melanoma = test system: LOX IMVI melanoma
M19-MEL melanoma = test system: M19-MEL melanoma
SK-OV-3 ovarian = test system: SK-OV-3 ovarian
MOLT-4 leukemia = test system: MOLT-4 leukemia
A498 renal = test system: A498 renal
HT29 colon = test system: HT29 colon
SF-539 CNS = test system: SF-539 CNS
TK-10 renal = test system: TK-10 renal
HCT-116 colon = test system: HCT-116 colon
SN12C renal = test system: SN12C renal
OVCAR-4 ovarian = test system: OVCAR-4 ovarian
OVCAR-8 ovarian = test system: OVCAR-8 ovarian
KM12 colon = test system: KM12 colon
M14 melanoma = test system: M14 melanoma
RXF 393 renal = test system: RXF 393 renal
U251 CNS = test system: U251 CNS
HOP-18 NSCLC = test system: HOP-18 NSCLC
786-0 renal = test system: 786-0 renal
HOP-92 NSCLC = test system: HOP-92 NSCLC
OVCAR-5 ovarian = test system: OVCAR-5 ovarian
SF-295 CNS = test system: SF-295 CNS
UACC-257 melanoma = test system: UACC-257 melanoma
IGROV1 ovarian = test system: IGROV1 ovarian
UO-31 renal = test system: UO-31 renal
NCI-H522 lung = test system: NCI-H522 lung
SW-620 colon = test system: SW-620 colon
CCRF-CEM leukemia = test system: CCRF-CEM leukemia
SK-MEL-2 melanoma = test system: SK-MEL-2 melanoma
SNB-19 CNS = test system: SNB-19 CNS
HOP-62 NSCLC = test system: HOP-62 NSCLC
HCC-2998 colon = test system: HCC-2998 colon
A549 NSCLC = test system: A549 NSCLC
SF-268 CNS = test system: SF-268 CNS
RPMI-8226 leukemia = test system: RPMI-8226 leukemia
DMS 273 small cell lung = test system: DMS 273 small cell lung
HCT-15 colon = test system: HCT-15 colon
RXF-631 renal = test system: RXF-631 renal
DLD-1 colon = test system: DLD-1 colon

Measured: TGI

COC(=O)C(=O)C(C(=O)C(=O)Nc1ccc(Cl)cc1C)c1nc2ccc(C(=O)c3ccccc3)cc2[nH]c1=O (stereo unspecified)
> 100 µM: NCI-H460 lung | ACHN renal | SNB-78 CNS | CAKI-1 renal | EKVX NSCLC | SNB-75 CNS | DMS 114 small cell lung | LXFL 529 NSCLC | NCI-H226 lung | HL-60(TB) leukemia | OVCAR-3 ovarian | MALME-3M melanoma | KM20L2 colon | K-562 leukemia | NCI-H23 lung | UACC-62 melanoma | SR leukemia | COLO 205 colon | LOX IMVI melanoma | M19-MEL melanoma | SK-OV-3 ovarian | MOLT-4 leukemia | A498 renal | HT29 colon | SF-539 CNS | TK-10 renal | HCT-116 colon | SN12C renal | OVCAR-4 ovarian | OVCAR-8 ovarian | KM12 colon | M14 melanoma | RXF 393 renal | U251 CNS | HOP-18 NSCLC | 786-0 renal | HOP-92 NSCLC | OVCAR-5 ovarian | SF-295 CNS | UACC-257 melanoma | IGROV1 ovarian | UO-31 renal | NCI-H522 lung | SW-620 colon | CCRF-CEM leukemia | SK-MEL-2 melanoma | SNB-19 CNS | HOP-62 NSCLC | HCC-2998 colon | A549 NSCLC | SF-268 CNS | RPMI-8226 leukemia | DMS 273 small cell lung | HCT-15 colon | RXF-631 renal | DLD-1 colon
